Values joined by “and” are separate entries in the source; they are usually repeats but may differ in a detail not shown here. Identical values can stand only once.
Columns and labels:
Format in all cases: cell-based
[1] = tested on: Gal4/UAS SEAP expression in HEK293T cells; test: Drug specificity of CDH-TFs; details: Suppl Fig 7b
Procedure: Supplementary Figure 7: Dose-dependence and reversibility characterization of CDHs in CDH-
a) Background signal of SEAP reporter in the absence of the CDH-TF system. HEK239T cells were
(§1) transfected with SEAP reporter S132 and treated with 1 µM Drugs 12 hours post transfection.
(§2) Quantification of SEAP was performed 24 hours after drug treatment. b) Drug specificity of CDH-TFs. […]

[2] = tested on: SEAP and Luciferase expression in HEK293T cells; test: MIMO designer cells (AIR-1/2-GEMS + CDH-3-TF); details: for SEAP: Fig5c, turn ON via AIR-2-GEMS
Text: We first engineered MIMO cells to respond to two drugs with distinct outputs (Fig. 5a) by co-transfecting the CDH-3-TF with either AIR-1-GEMS (Fig. 5b) or AIR-2-GEMS (Fig. 5c).
Fig. 5 Orthogonal chemical switches enable implementation of multi-input multi-output control modes in mammalian cells. a Scheme of multi-inputs multi-outputs (MIMO) designer cells where two drugs control two different outputs. b, c Cells were co-transfected with AIR-1/2-GEMS and CDH-3-TF regulate SEAP and Luciferase expression, respectively. […] AIR-1/2-GEMS coupled with SEAP expression circuits were co-transfected with CDH-1/2-TF circuits which control the Luciferase production. Respective drug concentrations ranged from 0.001 nM to 1 µM. All values presented are mean ± s.d. of three replicates and curves were fitted by four-parameters nonlinear regression. b, c, e, f, h, i Source data are available in the source data file.
Supplementary Figure 13: Orthogonal chemical switches enable implementation of multi-input multi-output control modes in mammalian cells. a) Dual drug toxicity tests in 293T cells. […]
concentrations of 1 nM, 10 nM, 100 nM and 1000 nM each drug in cell culture medium. CCK8 assay was performed 24 hours after drug treatment. Each bar represents the mean of three biological replicates ± s.d, overlaid with a scatter dot plot of the original data points. b-c) Cells were co-transfected with AIR-1-GEMS and CDH-3-TF regulate SEAP and Luciferase expression, respectively. Drug concentrations ranged from 0.001 nM to 1 µM and different combinations were added depending on the protein components, Drug-1 only (b) and Drug-3 only (c). d-e) Cells were co-transfected with AIR-2-GEMS and CDH-3-TF regulate SEAP and Luciferase expression, respectively. Drug concentrations ranged from 0.001 nM to 1 µM and different combinations were added depending on the protein […]
1-TF and CDH-3-TF circuits. Drug-1 concentrations ranged from 0.001 nM to 1 µM (left) and 1 µM Drug-1 with serial diluted Drug-3 from 0.001 nM to 1 µM (right). g) Quantification of SEAP activity controlled by CDH-1-GEMS and CDH-3-GEMS circuits. Drug-1 concentrations ranged from 0.001 nM to 1 µM (left) and Drug-3 dilution along with 1 µM Drug-1 (right). h-i) Quantification of SEAP and Luciferase activities under Drug-1. AIR-1-GEMS coupled with SEAP expression circuits (i) and CDH-1-TF circuits which control the Luciferase production (j). j-k) Quantification of SEAP and Luciferase activities under Drug-2. AIR-2-GEMS coupled with SEAP expression circuits (k) and CDH-2-TF circuits which control the Luciferase production (l). b-k) Each data point represents the mean of n = 3 biological replicates, and the dose-dependent curve were fitted using four-parameter nonlinear regression.

[3] = tested on: SEAP expression in HEK293T cells; test: Background signal of SEAP reporter and single-construct controls
Procedure: Supplementary Figure 7: Dose-dependence and reversibility characterization of CDHs in CDH- […]
as §1, §2
Background signal of SEAP reporter in the absence of the CDH-GEMS system. HEK293T cells were transfected with pLS566 SEAP reporter plasmids and treated with drugs. Quantification of SEAP was performed 24 hours post drug treatment. f) SEAP activity upon transfecting single or paired […]
Quantification of SEAP activity of three CDHs with DMSO (dark color), specific (light color) and unspecific drug treatment (gray). […]
(culture medium) in panels of b, c, f and g were collected every 12 hours. Values were normalized to zero based on the SEAP expression at time 0. a, b, e, f, g) The bar charts show the mean ± s.d. of n = 3 biologically independent samples overlaid with a scatter dot plot of the original data points.

[4] = Suppl Fig 7a, TF reporter (S132) only
[5] = Suppl Fig 7e, GEMS reporter (pLS566) only
[6] = Fig5c SEAP via AIR-2-GEMS, four-parameter fit

CN(C)CC#Cc1ccc(OCCCc2sc(N3CCc4cccc(C(=O)Nc5nc6ccccc6s5)c4C3)nc2C(=O)O)c(F)c1 [Drug-1, A-1155463]
Reporter signal, drug specificity ([1]; CDH1): 10.7853 and 9.721 and 10.2555
Reporter signal, drug specificity ([1]; CDH3): 120.91 and 123.106 and 130.139
AIR-1-GEMS controlled SEAP expression ([2]; Fig S13b, Drug-1 0.01 nM): 2.034 U/L and 2.266 U/L and 2.426 U/L
CDH-3-TF controlled Luciferase expression ([2]; Fig S13b, Drug-1 0.01 nM): 63197 RLU and 77075 RLU and 76343 RLU
AIR-1-GEMS controlled SEAP expression ([2]; Fig S13b, Drug-1 0.1 nM): 2.577 U/L and 3.504 U/L and 1.937 U/L
CDH-3-TF controlled Luciferase expression ([2]; Fig S13b, Drug-1 0.1 nM): 69663 RLU and 84855 RLU and 75827 RLU
AIR-1-GEMS controlled SEAP expression ([2]; Fig S13b, Drug-1 1 nM): 2.677 U/L and 2.7744 U/L and 2.999 U/L
CDH-3-TF controlled Luciferase expression ([2]; Fig S13b, Drug-1 1 nM): 81097 RLU and 77144 RLU and 82001 RLU
AIR-1-GEMS controlled SEAP expression ([2]; Fig S13b, Drug-1 3.16 nM): 4.756 U/L and 3.455 U/L and 4.71 U/L
CDH-3-TF controlled Luciferase expression ([2]; Fig S13b, Drug-1 3.16 nM): 79328 RLU and 72559 RLU and 71332 RLU
AIR-1-GEMS controlled SEAP expression ([2]; Fig S13b, Drug-1 10 nM): 14.6262 U/L and 14.8753 U/L and 12.6214 U/L
CDH-3-TF controlled Luciferase expression ([2]; Fig S13b, Drug-1 10 nM): 80379 RLU and 81140 RLU and 95805 RLU
AIR-1-GEMS controlled SEAP expression ([2]; Fig S13b, Drug-1 31.6 nM): 24.9389 U/L and 23.1767 U/L and 24.3137 U/L
CDH-3-TF controlled Luciferase expression ([2]; Fig S13b, Drug-1 31.6 nM): 89062 RLU and 83795 RLU and 94983 RLU
AIR-1-GEMS controlled SEAP expression ([2]; Fig S13b, Drug-1 100 nM): 28.6367 U/L and 35.4252 U/L and 28.7763 U/L
CDH-3-TF controlled Luciferase expression ([2]; Fig S13b, Drug-1 100 nM): 85794 RLU and 82597 RLU and 83527 RLU
AIR-1-GEMS controlled SEAP expression ([2]; Fig S13b, Drug-1 316 nM): 33.0089 U/L and 34.8793 U/L and 29.7782 U/L
CDH-3-TF controlled Luciferase expression ([2]; Fig S13b, Drug-1 316 nM): 82096 RLU and 72932 RLU and 89789 RLU
AIR-1-GEMS controlled SEAP expression ([2]; Fig S13b, Drug-1 1000 nM): 37.3806 U/L and 38.9993 U/L and 31.1376 U/L
CDH-3-TF controlled Luciferase expression ([2]; Fig S13b, Drug-1 1000 nM): 73138 RLU and 75381 RLU and 85198 RLU
Reporter background signal [3, 4]: 2.1563 and 2.182 and 2.388
Reporter background signal [3, 5]: 2.888 and 3.062 and 3.039

CC1(C)CCC(CN2CCN(c3ccc(C(=O)NS(=O)(=O)c4ccc(NCC5CCOCC5)c([N+](=O)[O-])c4)c(Oc4cnc5[nH]ccc5c4)c3)CC2)=C(c2ccc(Cl)cc2)C1 [Drug-2, Venetoclax]
Reporter signal, drug specificity ([1]; CDH2): 31.2802 and 28.6812 and 29.088
Bottom (best-fit value) [2, 6]: 11.58
HillSlope (best-fit value) [2, 6]: 0.4637
Span (best-fit value) [2, 6]: 174.4
Top (best-fit value) [2, 6]: 186
logIC50 (best-fit value) ([2]; Fig5c SEAP via AIR-2-GEMS, four-parameter fit, drug in nM): 2.821
SEAP ([2]; 0.1 nM): 16.9661 U/L and 14.3649 U/L and 16.0293 U/L
SEAP ([2]; 0.5 nM): 32.7217 U/L and 18.5086 U/L and 20.3629 U/L
SEAP ([2]; 1 nM): 9.507 U/L and 8.828 U/L and 9.449 U/L
SEAP ([2]; 5 nM): 12.4048 U/L and 14.8898 U/L and 15.5553 U/L
SEAP ([2]; 10 nM): 53.9453 U/L and 51.1 U/L and 44.2357 U/L
SEAP ([2]; 50 nM): 67.8694 U/L and 53.3505 U/L and 65.0318 U/L
SEAP ([2]; 500 nM): 99.6195 U/L and 87.3604 U/L and 83.3391 U/L
SEAP ([2]; 1000 nM): 116.832 U/L
AIR-2-GEMS controlled SEAP expression ([2]; Fig S13d, Drug-2 0.01 nM): 59.8517 U/L and 85.418 U/L and 69.2527 U/L
CDH-3-TF controlled Luciferase expression ([2]; Fig S13d, Drug-2 0.01 nM): 46959 RLU and 46941 RLU and 46901 RLU
AIR-2-GEMS controlled SEAP expression ([2]; Fig S13d, Drug-2 0.1 nM): 118.67 U/L and 114.835 U/L and 107.758 U/L
CDH-3-TF controlled Luciferase expression ([2]; Fig S13d, Drug-2 0.1 nM): 41162 RLU and 49637 RLU and 46127 RLU
AIR-2-GEMS controlled SEAP expression ([2]; Fig S13d, Drug-2 1 nM): 115.899 U/L and 181.597 U/L and 152.021 U/L
CDH-3-TF controlled Luciferase expression ([2]; Fig S13d, Drug-2 1 nM): 45977 RLU and 44865 RLU and 47068 RLU
AIR-2-GEMS controlled SEAP expression ([2]; Fig S13d, Drug-2 3.14 nM): 134.444 U/L and 173.229 U/L and 165.776 U/L
CDH-3-TF controlled Luciferase expression ([2]; Fig S13d, Drug-2 3.14 nM): 43947 RLU and 39268 RLU and 39254 RLU
AIR-2-GEMS controlled SEAP expression ([2]; Fig S13d, Drug-2 10 nM): 190.854 U/L and 240.534 U/L and 260.228 U/L
CDH-3-TF controlled Luciferase expression ([2]; Fig S13d, Drug-2 10 nM): 47016 RLU and 49191 RLU and 50470 RLU
AIR-2-GEMS controlled SEAP expression ([2]; Fig S13d, Drug-2 31.4 nM): 299.546 U/L and 359.696 U/L and 315.099 U/L
CDH-3-TF controlled Luciferase expression ([2]; Fig S13d, Drug-2 31.4 nM): 45761 RLU and 44242 RLU and 45130 RLU
AIR-2-GEMS controlled SEAP expression ([2]; Fig S13d, Drug-2 100 nM): 326.848 U/L and 345.031 U/L and 379.553 U/L
CDH-3-TF controlled Luciferase expression ([2]; Fig S13d, Drug-2 100 nM): 45390 RLU and 42062 RLU and 45223 RLU
AIR-2-GEMS controlled SEAP expression ([2]; Fig S13d, Drug-2 314 nM): 491.977 U/L and 483.914 U/L and 518.642 U/L
CDH-3-TF controlled Luciferase expression ([2]; Fig S13d, Drug-2 314 nM): 40043 RLU and 38537 RLU and 34569 RLU
AIR-2-GEMS controlled SEAP expression ([2]; Fig S13d, Drug-2 1000 nM): 386.41 U/L and 334.548 U/L and 408.363 U/L
CDH-3-TF controlled Luciferase expression ([2]; Fig S13d, Drug-2 1000 nM): 40262 RLU and 37715 RLU and 45464 RLU
IC50 ([2]; Homo sapiens, HEK-293T, Fig5c SEAP turn ON via AIR-2-GEMS, four-parameter fit, given as IC50, read-out: IC50 (best-fit value)): 0.662 µM
Reporter background signal [3, 4]: 2.167 and 2.065 and 2.282
Reporter background signal [3, 5]: 2.782 and 3.488 and 3.279

Source: article PMC8486872, “A rational blueprint for the design of chemically-controlled protein switches” (Nature Communications, 2021)
